Experimental data taken from US20100075965A1, “PI3 KINASE INHIBITORS AND METHODS OF THEIR USE” (Novartis AG, priority 2006, published 2010).
Where two headings read alike, the source gives them in different places.

Key:
[1] = tested on: A2780 cells; assay: Viability assay in A2780 (Cell Titer Glo); assay type: cell-based, human; details: Homo sapiens, A2780 cells, read-out: A2780 Cell prolif. EC50
Experimental: Cell viability was assessed with Cell Titer Glo assay, Promega. Cells were seeded in TC treated 96-well plates at a density of 1,000 (A2780 cells) per well in DMEM with 10% FBS, 1% Sodium Pyruvate, and 1% Penicillin Streptomycin for a minimum of 2 hrs prior to addition of compound. Test compounds were serially diluted (3 fold) in DMSO to 500× the final concentration. For each concentration of test compound, 2 μL (500×) aliquots of compound or 100% DMSO (control) were diluted in 500 μL of culture medium to 2× final concentration then diluted 1× on the cells. Cells were incubated for 72 hrs at 37° C., 5% CO2. After which Cell Titer Glo is added to determine viable cells, the assay was performed according to the manufacturer's instruction (Promega Corporation, Madison, Wis. USA). Each experimental condition was performed in duplicate. Raw data was imported in Abase and EC50s calculated with XL-fit data analysis software and are shown in Tables 1 and 2 in the column labeled “A2780 Cell prolif. EC50”.

[2] = biological target: PI3 K Alpha (Homo sapiens, UniProt P42336); assay: PI3 kinase phosphorylation assays (homogenous solution phase, one step solid phase, ATP depletion/KinaseGlo); assay type: biochemical
[3] = ATP depletion assay, read-out: PI3 K Alpha IC50

Chain of PI3 K Alpha (P42336 whole entry): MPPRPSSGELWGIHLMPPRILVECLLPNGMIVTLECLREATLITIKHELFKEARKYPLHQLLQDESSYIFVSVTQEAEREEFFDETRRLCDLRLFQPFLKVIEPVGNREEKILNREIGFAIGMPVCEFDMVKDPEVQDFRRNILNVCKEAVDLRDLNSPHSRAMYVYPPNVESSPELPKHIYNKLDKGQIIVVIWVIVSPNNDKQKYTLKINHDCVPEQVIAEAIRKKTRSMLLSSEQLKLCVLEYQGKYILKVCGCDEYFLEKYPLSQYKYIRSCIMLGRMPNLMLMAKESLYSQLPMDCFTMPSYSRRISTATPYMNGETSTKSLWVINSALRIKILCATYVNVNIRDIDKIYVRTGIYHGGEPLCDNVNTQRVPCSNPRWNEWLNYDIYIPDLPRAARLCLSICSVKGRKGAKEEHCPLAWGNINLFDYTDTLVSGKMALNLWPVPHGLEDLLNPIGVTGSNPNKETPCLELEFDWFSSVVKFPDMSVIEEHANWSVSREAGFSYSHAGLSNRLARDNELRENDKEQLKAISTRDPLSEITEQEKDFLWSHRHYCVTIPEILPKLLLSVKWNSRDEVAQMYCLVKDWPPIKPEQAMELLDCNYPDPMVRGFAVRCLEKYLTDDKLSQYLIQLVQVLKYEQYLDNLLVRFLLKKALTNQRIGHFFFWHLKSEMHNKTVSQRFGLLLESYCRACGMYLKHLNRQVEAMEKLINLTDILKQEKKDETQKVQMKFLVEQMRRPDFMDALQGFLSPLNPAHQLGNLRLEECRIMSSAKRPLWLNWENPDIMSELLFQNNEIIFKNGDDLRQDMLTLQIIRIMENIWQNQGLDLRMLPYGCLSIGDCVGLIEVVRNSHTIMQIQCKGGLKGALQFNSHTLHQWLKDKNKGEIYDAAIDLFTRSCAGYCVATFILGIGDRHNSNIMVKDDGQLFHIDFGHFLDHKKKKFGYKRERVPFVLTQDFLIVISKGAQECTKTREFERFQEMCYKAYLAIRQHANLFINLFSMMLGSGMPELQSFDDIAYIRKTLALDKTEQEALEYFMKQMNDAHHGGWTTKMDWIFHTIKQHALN
Chain of PI3 K Alpha (P27986 whole entry partner): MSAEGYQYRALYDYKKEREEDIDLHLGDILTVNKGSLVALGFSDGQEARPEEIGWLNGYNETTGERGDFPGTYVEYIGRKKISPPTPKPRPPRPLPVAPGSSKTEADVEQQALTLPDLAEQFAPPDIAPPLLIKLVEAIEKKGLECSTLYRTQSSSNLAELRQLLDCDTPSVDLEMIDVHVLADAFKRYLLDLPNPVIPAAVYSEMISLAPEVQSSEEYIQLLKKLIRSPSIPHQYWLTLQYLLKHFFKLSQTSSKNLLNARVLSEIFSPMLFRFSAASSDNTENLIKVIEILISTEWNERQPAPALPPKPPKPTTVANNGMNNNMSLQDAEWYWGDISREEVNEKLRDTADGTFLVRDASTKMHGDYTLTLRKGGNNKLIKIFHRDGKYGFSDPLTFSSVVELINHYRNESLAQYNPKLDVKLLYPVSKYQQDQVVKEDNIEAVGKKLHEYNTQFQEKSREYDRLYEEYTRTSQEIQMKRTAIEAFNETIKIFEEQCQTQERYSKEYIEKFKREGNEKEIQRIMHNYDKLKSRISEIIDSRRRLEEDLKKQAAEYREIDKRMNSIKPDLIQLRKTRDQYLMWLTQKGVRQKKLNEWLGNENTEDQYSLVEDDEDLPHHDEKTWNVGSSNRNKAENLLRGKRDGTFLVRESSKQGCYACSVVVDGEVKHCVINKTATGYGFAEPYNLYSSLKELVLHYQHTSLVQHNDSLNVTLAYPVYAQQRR

| Compound | EC50 [1] [µM] | IC50 ([2]; read-out: PI3K Alpha IC50) [µM] | EC50 ([1]; 72 hrs) [µM] | IC50 [2, 3] [µM] |
| --- | --- | --- | --- | --- |
| CC(C)(C)OC(=O)N1CC(C(=O)Nc2cn3nc(-c4cnc(N)c(C(F)(F)F)c4)ccc3n2)C1 [Example 197, tert-butyl 3-(6-(6-amino-5-(trifluoromethyl)pyridin-3-yl)imidazo[1,2-b]pyridazin-2-ylcarbamoyl) azetidine-1-carboxylate] | < 10 | < 1 | – | – |
| Nc1ccc(C(=O)Nc2nc3ccc(-c4cnc(N)c(C(F)(F)F)c4)cc3s2)cn1 [Example 2-34, 6-amino-N-(6-(6-amino-5-(trifluoromethyl)pyridin-3-yl)benzo[d]thiazol-2-yl)nicotinamide] | – | – | < 1 | < 1 |
| NC(=O)N1CCC[C@H]1C(=O)Nc1cn2cc(-c3cnc(N)c(C(F)(F)F)c3)ccc2n1 [Example 46, (S)-N2-(6-(6-amino-5-(trifluoromethyl)pyridin-3-yl)imidazo[1,2-a]pyridin-2-yl)pyrrolidine-1,2-dicarboxamide] | < 10 | < 10 | – | – |
| COCCOc1nc(-c2ccc3nc(NC(=O)C4CCN4C(C)=O)cn3c2)cnc1N (centres unmarked) [Example 249, 1-acetyl-N-(6-(5-amino-6-(2-methoxyethoxy)pyrazin-2-yl)imidazo[1,2-a]pyridin-2-yl)azetidine-2-carboxamide] | < 10 | < 1 | – | – |
| CC(=O)Nc1cn2c(C)c(-c3cnc(N)c(OCC(F)(F)F)n3)ccc2n1 [Example 112, N-(6-(5-amino-6-(2,2,2-trifluoroethoxy)pyrazin-2-yl)-5-methylimidazo [1,2-a]pyridin-2-yl)acetamide] | < 10 | < 1 | – | – |
| CC(=O)Nc1cn2cc(-c3cnc(N)c(C(=O)NCCNS(C)(=O)=O)n3)ccc2n1 [Example 158, 6-(2-acetamido-imidazo[1,2-a]pyridin-6-yl)-3-amino-N-(2-(methylsulfon amido)ethyl) pyrazine-2-carboxamide] | < 25 | < 1 | – | – |
| CCC(=O)Nc1cn2cc(-c3cnc(N)c(C(F)(F)F)c3)ccc2n1 [Example 236, N-(6-(6-amino-5-(trifluoromethyl)pyridin-3-yl)imidazo[1,2-a]pyridin-2-yl)propionamide] | < 10 | < 1 | – | – |
| CC(=O)Nc1cn2cc(-c3cnc(N)c(OC4CNC4)n3)ccc2n1 [Example 149, N-(6-(5-amino-6-(azetidin-3-yloxy)pyrazin-2-yl)imidazo[1,2-a]pyridin-2-yl)acetamide] | < 25 | < 1 | – | – |
| NCCCC(=O)Nc1cn2nc(-c3cnc(N)c(C(F)(F)F)c3)ccc2n1 [Example 137, 4-amino-N-(6-(6-amino-5-(trifluoromethyl)pyridin-3-yl)imidazo[1,2-b]pyridazin-2-yl)butanamide] | < 25 | < 1 | – | – |
| N#Cc1cccc(C(=O)Nc2cn3cc(-c4cnc(N)c(C(F)(F)F)c4)ccc3n2)c1 [Example 245, N-(6-(6-amino-5-(trifluoromethyl)pyridin-3-yl)imidazo[1,2-a]pyridin-2-yl)-3-cyanobenzamide] | < 10 | < 1 | – | – |
| CC(=O)Nc1cn2cc(-c3cnc(N)c(-c4ccc(F)cc4)c3)ccc2n1 [Example 183, N-(6-(6-amino-5-(4-fluorophenyl)pyridin-3-yl)imidazo[1,2-a]pyridin-2-yl)acetamide] | < 25 | < 1 | – | – |
| Nc1ncc(-c2ccc3nc(NC(=O)c4ccccn4)cn3c2)cc1C(F)(F)F [Example 177] | < 25 | < 1 | – | – |
| COC(=O)C1CCN(C(=O)Nc2cn3cc(-c4cnc(N)c(C(F)(F)F)c4)ccc3n2)C1 (centres unmarked) [Example 257, methyl 1-(6-(6-amino-5-(trifluoromethyl)pyridin-3-yl)imidazo[1,2-a]pyridin-2-ylcarbamoyl) pyrrolidine-3-carboxylate] | < 10 | < 1 | – | – |
| Nc1ncc(-c2ccc3nc(NC(=O)N4CCCC4c4ccccn4)cn3c2)cc1C(F)(F)F (centres unmarked) [Example 175, N-(6-(6-amino-5-(trifluoromethyl)pyridin-3-yl)imidazo[1,2-a]pyridin-2-yl)-2-(pyridin-2-yl)pyrrolidine-1-carboxamide] | < 25 | < 1 | – | – |
| CC(=O)Nc1cn2cc(-c3cnc(N)c(C(=O)N4CCNCC4)c3)ccc2n1 [Example 160, N-(6-(6-amino-5-(piperazine-1-carbonyl)pyridin-3-yl)imidazo[1,2-a]pyridin-2-yl)acetamide] | < 25 | < 1 | – | – |
| CC(C)C(=O)Nc1cn2cc(-c3cnc(N)c(OCC(F)(F)F)n3)ccc2n1 [Example 230, N-(6-(5-amino-6-(2,2,2-trifluoroethoxy)pyrazin-2-yl)imidazo[1,2-a]pyridin-2-yl)isobutyramide] | < 10 | < 1 | – | – |

| Compound | EC50 [1] [µM] | IC50 ([2]; read-out: PI3K Alpha IC50) [µM] | EC50 ([1]; 72 hrs) [µM] | IC50 [2, 3] [µM] |
| --- | --- | --- | --- | --- |
| CC(C)(C)OC(=O)N1CCC(OCC(=O)Nc2cn3cc(-c4cnc(N)c(C(F)(F)F)c4)ccc3n2)CC1 [Example 251, tert-butyl 4-(2-(6-(6-amino-5-(trifluoromethyl)pyridin-3-yl)imidazo[1,2-a]pyridin-2-ylamino)-2-oxoethoxy) piperidine-1-carboxylate] | < 10 | < 1 | – | – |
| CC(=O)Nc1cn2nc(-c3cnc(N)c(C(=O)NCCNS(C)(=O)=O)c3)ccc2n1 [Example 141, 5-(2-acetamido-imidazo[1,2-b]pyridazin-6-yl)-2-amino-N-(2-(methylsulfon amido)ethyl) nicotinamide] | < 25 | < 1 | – | – |
| CC(=O)Nc1nc2cc(F)c(-c3cnc(N)c(C(F)(F)F)c3)cc2s1 [Example 2-29, N-[6-(6-Amino-5-trifluoromethyl-pyridin-3-yl)-5-fluoro-benzothiazol-2-yl]-acetamide] | – | – | < 25 | < 1 |
| CN(CC(=O)Nc1cn2nc(-c3cnc(N)c(C(F)(F)F)c3)ccc2n1)C(=O)OC(C)(C)C [Example 237, tert-butyl 2-(6-(6-amino-5-(trifluoromethyl)pyridin-3-yl)imidazo[1,2-b]pyridazin-2-ylamino)-2-oxoethyl(methyl) carbamate] | < 10 | < 1 | – | – |
| CCOC(=O)CC(=O)Nc1cn2cc(-c3cnc(N)c(C(F)(F)F)c3)ccc2n1 [Example 255, ethyl 3-(6-(6-amino-5-(trifluoromethyl)pyridin-3-yl)imidazo[1,2-a]pyridin-2-ylamino)-3-oxopropanoate] | < 10 | < 1 | – | – |
| C[C@@H](NC(=O)OC(C)(C)C)C(=O)Nc1cn2nc(-c3cnc(N)c(C(F)(F)F)c3)ccc2n1 [Example 253, (R)-tert-butyl 1-(6-(6-amino-5-(trifluoromethyl)pyridin-3-yl)imidazo[1,2-b]pyridazin-2-ylamino)-1-oxopropan-2-ylcarbamate] | < 10 | < 1 | – | – |
| COc1cc(-c2ccc3nc(NC(C)=O)cn3c2C)cnc1N [Example 167, N-(6-(6-amino-5-methoxypyridin-3-yl)-5-methylimidazo[1,2-a]pyridin-2-yl)acetamide] | < 25 | < 1 | – | – |
| N#Cc1ccc(C(=O)Nc2cn3cc(-c4cnc(N)c(C(F)(F)F)c4)ccc3n2)cc1 [Example 159, N-(6-(6-amino-5-(trifluoromethyl)pyridin-3-yl)imidazo[1,2-a]pyridin-2-yl)-4-cyanobenzamide] | < 25 | < 1 | – | – |
| Nc1ncc(-c2ccc3nc(NC(=O)[C@@H]4CCCCN4Cc4ccccc4)cn3c2)cc1C(F)(F)F [Example 233] | < 10 | < 1 | – | – |
| Nc1ncc(-c2ccc3nc(NC(=O)CCCC(=O)O)cn3n2)cc1C(F)(F)F [Example 138, 5-(6-(6-amino-5-(trifluoromethyl)pyridin-3-yl)imidazo[1,2-b]pyridazin-2-ylamino)-5-oxopentanoic acid] | < 25 | < 1 | – | – |
| C/C=C/C(=O)Nc1cn2cc(-c3cnc(N)c(C(F)(F)F)c3)ccc2n1 [Example 252, (E)-N-(6-(6-amino-5-(trifluoromethyl)pyridin-3-yl)imidazo[1,2-a]pyridin-2-yl)but-2-enamide] | < 10 | < 1 | – | – |
| CN(C)C1CCN(C(=O)Nc2cn3cc(-c4cnc(N)c(C(F)(F)F)c4)ccc3n2)C1 (centres unmarked) [Example 248, N-(6-(6-amino-5-(trifluoromethyl)pyridin-3-yl)imidazo[1,2-a]pyridin-2-yl)-3-(dimethylamino) pyrrolidine-1-carboxamide] | < 10 | < 1 | – | – |
| Cc1ccc(C2CCCN2C(=O)Nc2cn3cc(-c4cnc(N)c(C(F)(F)F)c4)ccc3n2)s1 (centres unmarked) [Example 180, N-(6-(6-amino-5-(trifluoromethyl)pyridin-3-yl)imidazo[1,2-a]pyridin-2-yl)-2-(5-methyithiophen-2-yl)pyrrolidine-1-carboxamide] | < 25 | < 1 | – | – |
| CCN/N=C/c1cc(-c2ccc3nc(NC(C)=O)cn3c2)cnc1N [Example 207, (E)-N-(6-(6-amino-5-((2-ethylhydrazono)methyl)pyridin-3-yl)imidazo[1,2-a]pyridin-2-yl)acetamide] | < 10 | < 1 | – | – |
| CC(=O)Nc1cn2cc(-c3cnc(N)c(OCC4CCN(C)CC4)n3)ccc2n1 [Example 209, N-(6-(5-amino-6-((1-methylpiperidin-4-yl)methoxy)pyrazin-2-yl)imidazo[1,2-a]pyridin-2-yl)acetamide] | < 10 | < 1 | – | – |
